Experimental data: the NIST ThermoML archive (doi:10.1016/j.fluid.2016.10.005)
± gives the expanded uncertainty stated by the source.

Assay: molar heat capacity at constant pressure; mn = molality of the nth substance listed, in mol/kg
Details: 101 kPa, Liquid, DSC

CCCCCOCCOCCOCCO [ethanol, 2-[2-[2-(pentyloxy)ethoxy]ethoxy]-] + O
molar heat capacity at constant pressure [J/K/mol]
Details | 278.15 K | 283.15 K | 288.15 K | 293.15 K | 298.15 K | 308.15 K | 318.15 K | 328.15 K | 333.15 K
m1 = 0.0166 | 75.93 ± 2.9 | 75.77 ± 2.9 | 75.66 ± 2.9 | 75.59 ± 2.9 | 75.56 ± 2.9 | 75.53 ± 2.9 | 75.56 ± 2.9 | 75.61 ± 2.9 | 75.66 ± 2.9
m1 = 0.0321 | 76.16 ± 3 | 76 ± 2.9 | 75.9 ± 2.9 | 75.83 ± 2.9 | 75.8 ± 2.9 | 75.78 ± 2.9 | 75.79 ± 2.9 | 75.85 ± 2.9 | 75.9 ± 2.9
m1 = 0.0392 | 76.27 ± 3 | 76.11 ± 2.9 | 76 ± 2.9 | 75.94 ± 2.9 | 75.91 ± 2.9 | 75.89 ± 2.9 | 75.9 ± 2.9 | 75.96 ± 2.9 | 76 ± 2.9
m1 = 0.06 | 76.59 ± 3 | 76.43 ± 3 | 76.32 ± 3 | 76.26 ± 3 | 76.22 ± 3 | 76.2 ± 3 | 76.21 ± 3 | 76.27 ± 3 | 76.32 ± 3
m1 = 0.0876 | 77.01 ± 3 | 76.85 ± 3 | 76.74 ± 3 | 76.68 ± 3 | 76.64 ± 3 | 76.62 ± 3 | 76.63 ± 3 | 76.68 ± 3 | 76.74 ± 3
m1 = 0.1214 | 77.52 ± 3 | 77.36 ± 3 | 77.26 ± 3 | 77.2 ± 3 | 77.15 ± 3 | 77.13 ± 3 | 77.14 ± 3 | 77.2 ± 3 | 77.24 ± 3
m1 = 0.1388 | 77.79 ± 3 | 77.63 ± 3 | 77.53 ± 3 | 77.47 ± 3 | 77.42 ± 3 | 77.4 ± 3 | 77.41 ± 3 | 77.47 ± 3 | 77.51 ± 3
m1 = 0.1661 | 78.19 ± 3 | 78.05 ± 3 | 77.95 ± 3 | 77.9 ± 3 | 77.85 ± 3 | 77.81 ± 3 | 77.85 ± 3 | 77.89 ± 3 | 77.91 ± 3
m1 = 0.1861 | 78.49 ± 3 | 78.35 ± 3 | 78.26 ± 3 | 78.21 ± 3 | 78.16 ± 3 | 78.12 ± 3 | 78.21 ± 3 | 78.2 ± 3 | 78.21 ± 3
m1 = 0.2119 | 78.88 ± 3.1 | 78.75 ± 3.1 | 78.66 ± 3 | 78.62 ± 3 | 78.57 ± 3 | 78.55 ± 3 | 78.65 ± 3 | 78.59 ± 3 | 78.59 ± 3
m1 = 0.2272 | 79.1 ± 3.1 | 78.99 ± 3.1 | 78.91 ± 3.1 | 78.86 ± 3.1 | 78.81 ± 3.1 | 78.84 ± 3.1 | 78.89 ± 3.1 | 78.81 ± 3.1 | 78.78 ± 3.1
m1 = 0.2499 | 79.44 ± 3.1 | 79.34 ± 3.1 | 79.27 ± 3.1 | 79.22 ± 3.1 | 79.18 ± 3.1 | 79.27 ± 3.1 | 79.21 ± 3.1 | 79.1 ± 3.1 | 79.08 ± 3.1
m1 = 0.2726 | 79.77 ± 3.1 | 79.7 ± 3.1 | 79.64 ± 3.1 | 79.59 ± 3.1 | 79.56 ± 3.1 | 79.68 ± 3.1 | 79.49 ± 3.1 | 79.36 ± 3.1 | 79.36 ± 3.1
m1 = 0.2949 | 80.1 ± 3.1 | 80.06 ± 3.1 | 80.02 ± 3.1 | 79.97 ± 3.1 | 79.97 ± 3.1 | 80.07 ± 3.1 | 79.75 ± 3.1 | 79.59 ± 3.1 | 79.62 ± 3.1
m1 = 0.314 | 80.39 ± 3.1 | 80.37 ± 3.1 | 80.34 ± 3.1 | 80.32 ± 3.1 | 80.49 ± 3.1 | 80.32 ± 3.1 | 79.96 ± 3.1 | 79.8 ± 3.1 | 79.84 ± 3.1
m1 = 0.3353 | 80.72 ± 3.1 | 80.73 ± 3.1 | 80.72 ± 3.1 | 80.85 ± 3.1 | 80.89 ± 3.1 | 80.6 ± 3.1 | 80.22 ± 3.1 | 80.05 ± 3.1 | 80.1 ± 3.1
m1 = 0.3562 | 81.05 ± 3.1 | 81.08 ± 3.1 | 81.12 ± 3.1 | 81.34 ± 3.2 | 81.24 ± 3.1 | 80.83 ± 3.1 | 80.45 ± 3.1 | 80.3 ± 3.1 | –
m1 = 0.3851 | 81.51 ± 3.2 | 81.58 ± 3.2 | 81.77 ± 3.2 | 81.87 ± 3.2 | 81.68 ± 3.2 | 81.19 ± 3.1 | 80.78 ± 3.1 | 80.63 ± 3.1 | –
m1 = 0.4069 | 81.92 ± 3.2 | 82.17 ± 3.2 | 82.36 ± 3.2 | 82.27 ± 3.2 | 81.99 ± 3.2 | 81.4 ± 3.2 | 81.01 ± 3.1 | 80.87 ± 3.1 | –
m1 = 0.426 | 82.31 ± 3.2 | 82.58 ± 3.2 | 82.73 ± 3.2 | 82.55 ± 3.2 | 82.25 ± 3.2 | 81.62 ± 3.2 | 81.22 ± 3.1 | 81.05 ± 3.1 | –
m1 = 0.4405 | 82.64 ± 3.2 | 82.93 ± 3.2 | 82.99 ± 3.2 | 82.77 ± 3.2 | 82.43 ± 3.2 | 81.77 ± 3.2 | 81.37 ± 3.2 | 81.17 ± 3.1 | –
m1 = 0.4693 | 83.38 ± 3.2 | 83.6 ± 3.2 | 83.45 ± 3.2 | 83.15 ± 3.2 | 82.79 ± 3.2 | 82.05 ± 3.2 | 81.69 ± 3.2 | 81.49 ± 3.2 | –
m1 = 0.4858 | 83.82 ± 3.2 | 83.98 ± 3.3 | 83.71 ± 3.2 | 83.35 ± 3.2 | 82.97 ± 3.2 | 82.23 ± 3.2 | 81.84 ± 3.2 | 81.65 ± 3.2 | –
m1 = 0.5111 | 84.48 ± 3.3 | 84.45 ± 3.3 | 84.09 ± 3.3 | 83.67 ± 3.2 | 83.27 ± 3.2 | 82.5 ± 3.2 | 82.12 ± 3.2 | 81.93 ± 3.2 | –
m1 = 0.5381 | 85.09 ± 3.3 | 84.88 ± 3.3 | 84.46 ± 3.3 | 84 ± 3.3 | 83.58 ± 3.2 | 82.8 ± 3.2 | 82.41 ± 3.2 | 82.22 ± 3.2 | 82.29 ± 3.2
m1 = 0.5586 | 85.48 ± 3.3 | 85.2 ± 3.3 | 84.75 ± 3.3 | 84.26 ± 3.3 | 83.82 ± 3.2 | 83.04 ± 3.2 | 82.64 ± 3.2 | 82.43 ± 3.2 | 82.51 ± 3.2
m1 = 0.5849 | 85.92 ± 3.3 | 85.58 ± 3.3 | 85.09 ± 3.3 | 84.59 ± 3.3 | 84.14 ± 3.3 | 83.34 ± 3.2 | 82.92 ± 3.2 | 82.72 ± 3.2 | 82.8 ± 3.2
m1 = 0.6026 | 86.2 ± 3.3 | 85.82 ± 3.3 | 85.31 ± 3.3 | 84.76 ± 3.3 | 84.33 ± 3.3 | 83.52 ± 3.2 | 83.11 ± 3.2 | 82.91 ± 3.2 | 83 ± 3.2
m1 = 0.6299 | 86.63 ± 3.4 | 86.13 ± 3.3 | 85.61 ± 3.3 | 85.06 ± 3.3 | 84.6 ± 3.3 | 83.81 ± 3.2 | 83.39 ± 3.2 | 83.19 ± 3.2 | 83.28 ± 3.2
m1 = 0.668 | 87.17 ± 3.4 | 86.57 ± 3.4 | 86.02 ± 3.3 | 85.47 ± 3.3 | 85 ± 3.3 | 84.22 ± 3.3 | 83.79 ± 3.2 | 83.6 ± 3.2 | 83.67 ± 3.2
m1 = 0.7037 | 87.62 ± 3.4 | 86.92 ± 3.4 | 86.38 ± 3.3 | 85.83 ± 3.3 | 85.34 ± 3.3 | 84.59 ± 3.3 | 84.15 ± 3.3 | 83.97 ± 3.3 | 84.02 ± 3.3
m1 = 0.731 | 87.93 ± 3.4 | 87.19 ± 3.4 | 86.64 ± 3.4 | 86.08 ± 3.3 | 85.59 ± 3.3 | 84.86 ± 3.3 | 84.42 ± 3.3 | 84.23 ± 3.3 | 84.3 ± 3.3
m1 = 0.7714 | 88.33 ± 3.4 | 87.59 ± 3.4 | 87 ± 3.4 | 86.43 ± 3.3 | 85.97 ± 3.3 | 85.25 ± 3.3 | 84.81 ± 3.3 | 84.65 ± 3.3 | 84.71 ± 3.3
m1 = 0.8141 | 88.74 ± 3.4 | 88.03 ± 3.4 | 87.41 ± 3.4 | 86.86 ± 3.4 | 86.39 ± 3.3 | 85.68 ± 3.3 | 85.26 ± 3.3 | 85.09 ± 3.3 | 85.14 ± 3.3
m1 = 0.8293 | 88.85 ± 3.4 | 88.14 ± 3.4 | 87.53 ± 3.4 | 86.96 ± 3.4 | 86.5 ± 3.4 | 85.79 ± 3.3 | 85.38 ± 3.3 | 85.24 ± 3.3 | 85.28 ± 3.3
m1 = 0.8679 | 89.21 ± 3.5 | 88.51 ± 3.4 | 87.87 ± 3.4 | 87.32 ± 3.4 | 86.88 ± 3.4 | 86.14 ± 3.3 | 85.78 ± 3.3 | 85.64 ± 3.3 | 85.68 ± 3.3
m1 = 0.9125 | 89.61 ± 3.5 | 88.91 ± 3.4 | 88.26 ± 3.4 | 87.74 ± 3.4 | 87.28 ± 3.4 | 86.56 ± 3.4 | 86.22 ± 3.3 | 86.09 ± 3.3 | 86.13 ± 3.3
m1 = 0.9573 | 90.05 ± 3.5 | 89.36 ± 3.5 | 88.69 ± 3.4 | 88.18 ± 3.4 | 87.71 ± 3.4 | 87 ± 3.4 | 86.71 ± 3.4 | 86.56 ± 3.4 | 86.62 ± 3.4
